According to BindingDB's records for doi:10.1016/j.bmc.2008.01.035 (Anhui University of Technology, 2008):

Molecular target: DNA gyrase subunit A/B (Staphylococcus aureus, UniProt P0A0K8+P20831)
Test: Inhibition of Staphylococcus aureus DNA gyrase supercoiling activity

DNA gyrase subunit A/B, sequence (P20831 whole entry): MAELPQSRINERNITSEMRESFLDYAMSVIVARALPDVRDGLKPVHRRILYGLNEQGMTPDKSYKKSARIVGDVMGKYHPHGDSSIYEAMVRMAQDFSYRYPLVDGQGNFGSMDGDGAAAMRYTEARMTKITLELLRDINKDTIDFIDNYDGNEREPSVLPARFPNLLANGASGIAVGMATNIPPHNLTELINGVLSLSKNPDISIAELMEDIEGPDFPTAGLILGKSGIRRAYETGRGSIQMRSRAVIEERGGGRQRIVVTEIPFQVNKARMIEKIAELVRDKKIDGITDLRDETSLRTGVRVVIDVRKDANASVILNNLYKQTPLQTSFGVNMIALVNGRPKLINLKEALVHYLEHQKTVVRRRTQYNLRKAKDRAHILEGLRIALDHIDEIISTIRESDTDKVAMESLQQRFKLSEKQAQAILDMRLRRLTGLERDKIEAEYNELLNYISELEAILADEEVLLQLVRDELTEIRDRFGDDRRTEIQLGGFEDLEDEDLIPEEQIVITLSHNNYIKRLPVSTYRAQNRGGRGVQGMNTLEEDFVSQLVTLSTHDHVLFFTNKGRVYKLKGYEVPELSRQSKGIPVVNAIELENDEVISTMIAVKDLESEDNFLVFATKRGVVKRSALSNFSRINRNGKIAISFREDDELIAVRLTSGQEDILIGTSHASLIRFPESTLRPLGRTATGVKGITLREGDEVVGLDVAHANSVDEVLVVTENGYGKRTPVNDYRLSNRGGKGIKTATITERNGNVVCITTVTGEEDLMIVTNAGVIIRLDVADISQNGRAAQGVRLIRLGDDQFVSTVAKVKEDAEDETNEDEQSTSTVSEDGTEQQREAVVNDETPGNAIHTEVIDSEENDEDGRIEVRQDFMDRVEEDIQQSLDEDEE
DNA gyrase subunit A/B, sequence (P0A0K8 whole entry): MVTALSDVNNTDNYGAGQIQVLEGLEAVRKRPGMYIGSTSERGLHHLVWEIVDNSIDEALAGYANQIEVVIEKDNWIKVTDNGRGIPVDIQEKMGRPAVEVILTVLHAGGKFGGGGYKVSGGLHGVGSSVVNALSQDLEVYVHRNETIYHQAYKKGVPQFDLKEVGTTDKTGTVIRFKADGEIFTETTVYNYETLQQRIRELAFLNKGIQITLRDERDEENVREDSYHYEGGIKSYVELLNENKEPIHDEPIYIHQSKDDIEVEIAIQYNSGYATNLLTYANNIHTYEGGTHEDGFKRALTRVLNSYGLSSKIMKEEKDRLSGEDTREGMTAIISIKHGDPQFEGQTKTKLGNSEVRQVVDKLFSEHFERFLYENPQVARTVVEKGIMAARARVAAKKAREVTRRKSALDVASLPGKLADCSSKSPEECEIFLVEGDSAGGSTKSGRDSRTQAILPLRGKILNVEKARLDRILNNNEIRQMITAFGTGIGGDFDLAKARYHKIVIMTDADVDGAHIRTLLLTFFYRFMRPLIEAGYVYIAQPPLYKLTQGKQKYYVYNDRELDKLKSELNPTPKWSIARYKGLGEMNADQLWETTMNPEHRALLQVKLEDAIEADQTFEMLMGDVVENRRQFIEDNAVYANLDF

SMILES | IC50 [nM]
C/C(=N/OC(=O)c1ccco1)N1N=C(c2ccc(Cl)cc2Cl)CC1c1ccccc1F (stereo not drawn) | 271
CCC(=O)O/N=C(/C)N1N=C(C)CC1c1ccccc1OCc1ccc(F)cc1 (stereo not drawn) | > 314000
C/C(=N/OC(=O)c1ccco1)N1N=C(c2ccc(Cl)cc2Cl)CC1c1ccc(C(F)(F)F)cc1 (stereo not drawn) | 979
C=CC(=O)O/N=C(/C)N1N=C(c2ccc(Cl)cc2Cl)CC1c1ccccc1F (stereo not drawn) | 1180
COC1CC(c2ccccc2)=NN1/C(C)=N\OC(=O)c1ccc(C(F)(F)F)cc1 (stereo not drawn) | 308
CC1=NN(/C(C)=N\OC(=O)c2cccnc2)C(c2ccc(OCc3ccc(F)cc3)cc2)C1 (stereo not drawn) | 7830
CC1=NN2C(C1)c1ccccc1CC2(C)C (stereo not drawn) | 1160
COC1CC(c2ccccc2)=NN1/C(C)=N\OC(=O)c1ccco1 (stereo not drawn) | 12200
